# Where “and” joins values, the source holds several entries; their conditions need not be identical. Identical values can stand only once.
# B1: Haloferax volcanii malate dehydrogenase (enzyme, UniProt Q9P9L2 1-304, looked up)
# chain: MTKVSVIGAAGTVGAAAGYNLALRDVCDELVFVDIPKMEDKTVGQAADTNHGIAYDSNTVVTQGGYEDTAGSDVVVITAGIPRQPGQTRIDLAGDNAPIMDDIGSSLAEYNDDFVSITTSNPVDLLNRHLYETGDRDRHKVIGFGGRLDSARFRYVLSQRFDVPVKNVDATILGEHGDAQVPVFSKVRVDGNDPAFSADEKEEILGDLQESAMDVIERKGATQWGPATGVAHMVEAVLHDTGEVLPGSLVLDGEFGYEDTAFGVPVKLGSNGIEEVVEWDLDDYEADLMDDAAEKLRDQYDEIA
# notes: malate dehydrogenase (MalDH) of Haloferax volcanii; S6-S8; Tetramer in molar KCl; the oligomeric state depends on salt type and concentration (monomer in 0.2 M KCl); also called H. volc MalDH; MalDH of H. volcanii
# Columns and labels:
# H. mari MalDH = target: T1, H. mari MalDH (Haloarcula marismortui, UniProt Q07841); test: NADH oxidation at […] nm, OAA concentration profile; type: biochemical; conditions: 3.8 M KCl, 50 mM Tris-HCl pH 7, 25 C, 0.2 mM NADH; no inhibition by excess substrate
# T1 construct: gene mdh; tetramer about 130 kDa
# T1 sequence (Q07841 1-304): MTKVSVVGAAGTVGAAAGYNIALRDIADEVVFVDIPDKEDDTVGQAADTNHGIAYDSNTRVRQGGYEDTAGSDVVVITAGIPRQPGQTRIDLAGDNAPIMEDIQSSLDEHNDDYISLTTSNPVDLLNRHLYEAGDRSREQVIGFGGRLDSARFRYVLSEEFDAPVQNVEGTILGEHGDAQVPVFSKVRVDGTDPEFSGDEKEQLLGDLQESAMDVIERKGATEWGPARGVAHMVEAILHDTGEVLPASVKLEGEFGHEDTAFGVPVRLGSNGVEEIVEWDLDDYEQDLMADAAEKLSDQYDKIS
# [1] = test system: Anc78 MalDH (LCAHa) (synthetic construct); test: NADH oxidation at […] nm, OAA concentration profile; type: biochemical; conditions: 3.8 M KCl, 50 mM Tris-HCl pH 7, 25 C, 0.2 mM NADH; inhibited by excess substrate
# Anc80 MalDH = target: T2, Anc80 MalDH (synthetic construct, UniProt Z9KM54M7L8); test: NADH oxidation at […] nm, OAA concentration profile; type: biochemical; conditions: 3.8 M KCl, 50 mM Tris-HCl pH 7, 25 C, 0.2 mM NADH; inhibited by excess substrate
# T2 construct: tetramer
# T2 sequence (Z9KM54M7L8 1-304): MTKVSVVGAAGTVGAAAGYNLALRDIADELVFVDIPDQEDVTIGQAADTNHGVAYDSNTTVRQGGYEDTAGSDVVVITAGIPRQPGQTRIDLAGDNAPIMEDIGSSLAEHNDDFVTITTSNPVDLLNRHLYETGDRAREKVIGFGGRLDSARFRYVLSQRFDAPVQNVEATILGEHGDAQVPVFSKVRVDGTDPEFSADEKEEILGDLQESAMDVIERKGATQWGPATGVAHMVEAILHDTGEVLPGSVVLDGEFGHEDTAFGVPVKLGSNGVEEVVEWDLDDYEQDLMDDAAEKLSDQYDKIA
# Anc88 MalDH = target: T3, Anc88 MalDH (synthetic construct, UniProt Z9B5L9LSO7); test: NADH oxidation at […] nm, OAA concentration profile; type: biochemical; conditions: 3.8 M KCl, 50 mM Tris-HCl pH 7, 25 C, 0.2 mM NADH; no inhibition by excess substrate
# T3 sequence (Z9B5L9LSO7 1-304): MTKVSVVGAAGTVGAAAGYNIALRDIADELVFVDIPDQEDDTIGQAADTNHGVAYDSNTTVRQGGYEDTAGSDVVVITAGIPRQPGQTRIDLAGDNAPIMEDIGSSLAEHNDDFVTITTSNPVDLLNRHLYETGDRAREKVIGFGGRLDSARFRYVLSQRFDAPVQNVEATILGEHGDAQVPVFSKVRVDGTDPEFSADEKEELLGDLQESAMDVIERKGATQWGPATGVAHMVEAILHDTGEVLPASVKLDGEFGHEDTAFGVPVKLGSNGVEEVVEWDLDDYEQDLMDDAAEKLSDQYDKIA
# N. maga MalDH = target: T4, N. maga MalDH (Natrialba magadii, UniProt D3SVD7); test: NADH oxidation at […] nm, OAA concentration profile; type: biochemical; conditions: 3.8 M KCl, 50 mM Tris-HCl pH 7, 25 C, 0.2 mM NADH; no inhibition by excess substrate
# T4 construct: gene mdh; tetrameric MalDH family
# T4 sequence (D3SVD7 1-304): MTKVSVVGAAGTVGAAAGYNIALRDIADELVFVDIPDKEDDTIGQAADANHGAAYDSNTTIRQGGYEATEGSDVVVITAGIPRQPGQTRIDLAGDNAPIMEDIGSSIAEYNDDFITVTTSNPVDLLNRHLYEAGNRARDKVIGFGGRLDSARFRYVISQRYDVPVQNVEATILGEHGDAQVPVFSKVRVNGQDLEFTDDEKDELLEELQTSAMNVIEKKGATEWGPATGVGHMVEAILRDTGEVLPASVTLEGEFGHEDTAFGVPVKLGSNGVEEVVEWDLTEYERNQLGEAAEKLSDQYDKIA
# [2] = target: the molecule itself; test: AUC; sedimentation velocity, 20 °C, 0.1 mg/ml, 50 mM Tris pH 7.0, 0.1 M KCl + 0.05 M MgCl2
# [3] = target: the molecule itself; test: AUC; sedimentation velocity, 20 °C, 0.1 mg/ml, 50 mM Tris pH 7.0, 1.0 M KCl
# [4] = target: the molecule itself; test: AUC; sedimentation velocity, 20 °C, 0.1 mg/ml, 50 mM Tris pH 7.0, 0.2 M KF, after 24 h incubation
Molecule,"NADH oxidation at 340 nm, OAA concentration profile (H. mari MalDH)","NADH oxidation at 340 nm, OAA concentration profile [1]","NADH oxidation at 340 nm, OAA concentration profile (Anc80 MalDH)","NADH oxidation at 340 nm, OAA concentration profile (Anc88 MalDH)","NADH oxidation at 340 nm, OAA concentration profile (N. maga MalDH)",stoichiometry N [2],stoichiometry N [3],stoichiometry N [4]
O=C(O)CC(=O)C(=O)O [oxaloacetate],H. mari MalDH is not sensitive to inhibition by high concentration of OAA,Anc78 and Anc80 MalDHs show a typical phenomenon of inhibition by an excess of substrate,Anc78 and Anc80 MalDHs show a typical phenomenon of inhibition by an excess of substrate,"(Anc88), the inhibition by high concentration of OAA is abolished (fig. 7C)",the inhibition by high concentration of OAA is abolished (fig. 7C),,,
B1,,,,,,4,4,4 and 2

# — article PMC8382911 (Molecular Biology and Evolution, 2021)
